Patent publication US8536157B2, “Non-steroidal compounds” (The University of Melbourne, priority 2007, dated 2013)

Assays:
[1] = test system: PGE2 release in J774 macrophages; assay: PGE2 release from LPS/IFNγ-stimulated J774 macrophages (radioimmunoassay); assay type: cell-based, murine; settings: Mus musculus, J774, 24 h, 30 min pre-treatment, 24 hour incubation
[2] = test system: human lung parenchymal fibroblasts, pFb; assay: Proliferation of human lung parenchymal fibroblasts in response to bFGF (cell counting); assay type: cell-based; settings: Fibroblast, given as Log IC50 (negative values), bFGF 300 pM, 48 h
Description: (§1) 3. Effects of Compounds on the Proliferation of Cells in Response to the Proliferative Stimulus of Either Thrombin (Human Airway Smooth Muscle) or Basic Fibroblast Growth Factor (bFGF)(Human Lung Parenchymal Fibroblasts, pFb)
The effects of compounds of the present invention on the proliferation of cells in response to the proliferative stimulus of either thrombin (human airway smooth muscle) or basic fibroblast growth factor (bFGF)(human lung parenchymal fibroblasts, pFb) were investigated. Cells were seeded onto 6-well plates at a density of 1.5×10^4 cells cm^2, made quiescent by removal of serum-containing media for 24 hours and then stimulated for 48 h with either thrombin (0.3 U/ml) or bFGF (300 pM). The test compounds were pre-incubated with HASM or pFb cells for 30 minutes before the addition of thrombin. At the end of the 48 hour incubation period, cells were detached from the culture plate by trypsin (0.5% w/v in PBS containing 1 mM EDTA), incubated for 5 minutes at ambient temperature in PBS containing 0.5% (w/v) trypan blue, washed twice (2% FCS in PBS), isolated by centrifugation (12,000×g, 5 min) and resuspended in 200 μl 2% FCS in PBS for counting in a haemocytometer chamber. […]

[3] = test system: human airway smooth muscle (HASM) cells; assay: Proliferation of human airway smooth muscle cells in response to thrombin (cell counting); assay type: cell-based; settings: given as Log IC50 (negative values), thrombin 0.3 U/ml, 48 h, compound pre-incubated 30 minutes
Description: as §1
The effects of compounds of the present invention on the proliferation of cells in response to the proliferative stimulus of either thrombin (human airway smooth muscle) or basic fibroblast growth factor (bFGF)(human lung parenchymal fibroblasts, pFb) were investigated. Cells were seeded onto 6-well plates at a density of 1.5×10^4 cells cm^2, made quiescent by removal of serum-containing media for 24 hours and then stimulated for 48 h with either thrombin (0.3 U/ml) or bFGF (300 pM). The test compounds were pre-incubated with HASM or pFb cells for 30 minutes before the addition of thrombin. At the end of the 48 hour incubation period, cells were detached from the culture plate by trypsin (0.5% w/v in PBS containing 1 mM EDTA), incubated for 5 minutes at ambient temperature in PBS containing 0.5% (w/v) trypan blue, washed twice (2% FCS in PBS), isolated by centrifugation (12,000×g, 5 min) and resuspended in 200 μl 2% FCS in PBS for counting in a haemocytometer chamber.
Human airway smooth muscle (HASM) cells were cultured from macroscopically normal bronchi (0.5-2 cm diameter) obtained from lung resection or heart-lung transplant specimens provided by the Alfred Hospital (Melbourne) according to methods published in detail previously (Fernandes et al., 1999).
Approximately 0.1 g of smooth muscle was stripped from the wall of the bronchus for each cell culture. Dissected tissue was immersed in Dulbecco's modified Eagle's medium (DMEM) (Flow Laboratories, Scotland), supplemented with 100 U/mL penicillin G (CSL, Australia) and 100 μg/mL streptomycin (CSL, Australia). The tissue was rinsed in phosphate buffered saline (PBS; Oxoid, England) and the airway smooth muscle was chopped into 2 mm^3 pieces and digested for 2 hours in DMEM containing elastase (0.5 mg/mL: Worthington Biochemical, USA) followed by a 12 hour incubation in DMEM containing collagenase (1 mg/mL) (Worthington Biochemical, USA), at 37° C. with agitation.
The resulting cell suspension was centrifuged and washed three times in phosphate buffered saline (PBS). Following the last centrifugation step, the cells were resuspended in 25 mL of DMEM supplemented with L-glutamine (2 mM: Sigma, USA), penicillin G (100 U/mL), streptomycin (100 μg/mL), amphotericin B (2 μg/mL: Wellcome, UK) and heat-inactivated FCS (10% v/v: CSL, Australia) and seeded into 25 cm^2 culture flasks. The primary isolates were incubated for 7 to 14 days to reach confluence. […]

[4] = target: proteins in rat lung membranes; assay: Competitive binding assay with [3H]-CP2117 on rat lung membranes (RLM); settings: given as Log IC50 (negative values); displacement of 10 nM [3H]-CP2117, overnight at 4° C.; ND- not detected
[5] = see WO 2004/101595; cited from earlier work

SMILES | melting point | activity at 1 µM ([1]; 1 μM, read-out: Effects on PGE2 release in J774 macrophages at 1 μM as a % of LPS/IFNγ control, mean) | activity at 10 µM ([1]; l0 μM, read-out: Effects on PGE2 release in J774 macrophages at l0 μM as a % of LPS/IFNγ control, mean) | IC50 [2] | IC50 [3] | Log IC50 RLM binding [4] | anti-inflammatory activity in vitro [5]
COc1ccc(/C(C)=N/OCc2ccc([N+](=O)[O-])cc2)cc1O [CP30218, (E)-3′-Hydroxy-4′-methoxyacetophenone O-4-Nitrobenzyl Oxime] | 105 to 105.7 °C | 218% | 188% | 0.00661 µM | 5.89 µM | −6.44 | –
COc1cc2c(cc1O)C(=NOCc1ccc([N+](=O)[O-])cc1)C[C@@H]1[C@@H]2CC[C@]2(C)[C@@H](O)CC[C@@H]12 [CP-2117, 2-methoxy-6-(4-nitrobenzyloxyimino)estradiol] | – | – | – | – | – | – | anti-inflammatory activity
